Assay results reported in US12551479B2, “Acyl-protein thioesterase inhibitor for the treatment and/or prevention of Huntington's disease” (UNIVERSITÉ GRENOBLE ALPES, priority 2019, dated 2026).

Columns and labels:
[1] = system: Hdh^CAG140/+ mice; assay: Rotarod test; assay type: in vivo, mouse; details: Hdh^CAG/+ mice
Procedure: Mice littermates were grouped into mixed treatment groups. Males and females were 6 months of age at the beginning of the treatment. For each specific test, all experimental groups were tested on the same day, during the light phase and between Days 16 and 28 of treatment. Prior to testing, mice were acclimatized to the test room for a period of 30 minutes. Treatments were randomly assigned and behavioral tests were performed 12 days before the end of the delivery of the treatment. […] Mice were excluded from analysis if their performance was calculated as a significant outlier by the Grubb test. One mouse was excluded based on these criteria. Mouse weights were measured prior to the start of treatment and until the end of testing.
The Rotarod apparatus was used to measure motor coordination and balance. Rotarod test was performed over 6 consecutive days, with 3 days of accelerated rotarod and then 3 days of fixed rotarod. […] The latency and speed at which mice fall off from the rotarod were measured up to 300 sec. For a fixed rotarod, mice were evaluated for 3 trials at 10, 15, and 20 rpm on days 4, 5, and 6, respectively. […] Data are expressed as the average of the 3 trials.

[2] = system: Hdh^CAG/+ mice; assay: Post-mortem synapse density (adjacent PSD95 and Vglut-1 spots) after 28 days of treatment; assay type: in vivo, mouse
Source text: We note that there is a significant reduction in this number of adjacent spots in untreated Hdh^CAG/+ mice.

[3] = system: WT and Hdh^CAG/+ corticostriatal network; assay: Synapse density (adjacent SYP and PSD95 spots) in microfluidic corticostriatal network; assay type: cell-based, mouse; details: 1 μM daily
Procedure: In FIG. 3H, we can see the recording area that was chosen for the assessment of synapse density by quantifying the number of synaptophysin (SYP) spots, a presynaptic marker, and the number of PSD95 spots, a postsynaptic marker. FIG. 3I testifies that in the Hdh^CAG/+ microfluidic network, the number of synapses is decreased in the microfluidic devices.
For striatal StHdh cells, acute treatment was performed at 10 μM for 1 hour before and during the acquisition time. For neurons within the microchambers, treatments were started at DIV2 until DIV12 every day at 1 μM in each compartment of the microfluidic device.
The inventors then assessed synapse density by quantifying the number of synaptophysin spots (presynaptic marker, SYP) adjacent to PSD95 spots (postsynaptic marker) within synaptic chamber of the microfluidic device using high-resolution Airyscan confocal microscopy (FIG. 3H). In Hdh^CAG/+ network, the number of synapses is decreased in the microfluidic devices (FIG. 3I). […] However, this was not significant.

[4] = system: cortical neurons derived from human induced pluripotent stem cells (iPSCs) from Huntington's disease patients; assay: BDNF-mCherry axonal trafficking in hiPSC-derived cortical neurons in microfluidic device; assay type: cell-based; details: 1 μM daily for 7 days vs DMSO
Procedure: Referring to FIG. 7A, the inventors again reproduced the corticostriatal network in vitro on a microfluidic device consisting of two neuronal chambers that are connected via microchannels. Experiments are performed over a period ranging from 0 to 40 days in vitro (DIV), the first 20 days for neuronal cell generation and differentiation of hiPSCs, followed by the introduction of the cells into the microfluidic device. 3 hours after introduction, cells were infected from the pre-synaptic compartment with a lentivirus encoding BDNF-mCHerry.
The human iPSC line ND42222 (RRID:CVCL_Y844 passage 42) “109Q” was obtained from Coriell Cell Repositories. This line is heterozygous for HTT p.Gln18[109] and therefore has 109 CAG repeats in one of the two HTT alleles. Amplification of human iPSCs, generation of neuronal cells and terminal differentiation were performed according to the work published in Gribaudo S. et al. (Stem Cell Reports 12, 230-244, 2019). 109Q cells were maintained on Vitronectin-coated plates (Life Technology) in mTeSRplus medium ([…] Technologies). Cultures were fed every other day and passaged by manual dissociation using 0.02% EDTA pH 7.2 (Merck Sigma-Aldrich) every 4-5 days. For neuronal differentiation, hiPSC colonies were treated (DIV0) as previously described (Nicoleau et al., 2013) in N2B27 medium consisting of 50% DMEMF-12 Glutamax, 50% neurobasal medium, 2% B27 supplement 50× without vitamin A, 1% N2 supplement, 0.1% penicillin streptomycin, and 50 μM β-mercaptoethanol (Thermofisher). Neuronal differentiation was initiated by passage of hiPSCs in N2B27 medium supplemented with SB431542 (20 μM, Tocris), LDN-193189 (100 nM, Sigma Aldrich) and XAV_939 (1 μM, Tocris) and 10 μM ROCK inhibitor (Y27632, Calbiochem) on low-adhesion culture plates (Greiner) for 6 hours. The medium was changed every day from DIV0 to DIV20. At DIV1, hiPSC aggregates were transferred to laminin poly-ornitine-coated dishes without Y27632. From DIV5 to DIV9, SB431542 was removed and FGF2 (10 ng/ml) and cyclopamine 1 μM (Merck) were added. […]

Question: How did the “average speed achieved on accelerated rotarod” value ([1]; 4 to 40 rpm in 600, 300, 120 s, statistically significant in the 300 s condition) turn out when `O=C(CN1CCN(C(=O)c2ccco2)CC1)Nc1cc(C(F)(F)F)ccc1Cl` [ML-348] was run?
Answer: recover motor coordination close to that of wild-type mice

Question: And the “performance on fixed speed rotarod” value ([1]; constant speed 10 and 15 rpm)?
Answer: significantly improved the performances

Question: And the “synaptic density, number of PSD95 and Vglut-1 adjacent dots per 100 μm^2” value [2]?
Answer: restores synaptic density to a level approximately equal to that of untreated wild-type mice

Question: What about the “number of synapses (adjacent SYP and PSD95 spots)” value ([3]; Hdh^CAG/+ network) of the same compound?
Answer: restored the number of synapses

Question: What about the “number of synapses (adjacent SYP and PSD95 spots)” value ([3]; wild-type network, not statistically significant) of the same compound?
Answer: slightly reduced synapse connectivity

Question: And the “anterograde and retrograde transport velocities of BDNF-mCherry vesicles” value [4]?
Answer: not statistically significant

Question: And the linear net flow [4]?
Answer: significantly increased

Question: And the “number of vesicles moving in either direction (anterograde, retrograde)” value [4]?
Answer: significantly increased
